From ChEMBL document CHEMBL1201862, “PubChem BioAssay data set” (2004) come the findings set out here.

Among the test systems are A549; HCT-15; HL-60; Hs-578T; IGROV-1; M14; MCF7; OVCAR-3; RPMI-8226; SF-268; SF-539; SK-MEL-28; SNB-75; TK-10; UACC-257; UACC-62; UO-31; A498; SR.
What all share (assay): inhibition of tumour cell growth, NCI panel, 48 h

Molecules are shown by their SMILES.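 Protocol summary: plate cells (96-well), add compound at 5 concentrations, incubate 48 h, interpolate endpoints linearly. Abbreviation: GI50, concentration required for 50% inhibition of growth.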 The source made the active and inactive calls. Rule as the data show it: active = GI50 up to about 1.1 µM and inactive = higher.

For the compound `C=CCN(C(=O)CNC(=O)C(F)(F)F)c1cc(OCc2ccccc2)c2c(c1)c(C)cn2S(=O)(=O)c1ccccc1`, the GI50 was 7.5 µM (inactive) in the assay on A549; above 100 µM in the assay with HCT-15; < 0.01 µM (active) in the assay on HL-60; > 100 µM (inactive) in the assay on Hs-578T; 12.1 µM (inactive) with IGROV-1; > 100 µM (inactive) in the assay with M14. In addition, the GI50 is 7.57 µM (inactive) with MCF7; > 49.5 µM (inactive) with OVCAR-3; 4.73 µM (inactive) in the assay with RPMI-8226; 6.59 µM (inactive) in the assay on SF-268; > 100 µM (inactive) in the assay on SF-539; > 100 µM (inactive) in the assay on SK-MEL-28. Besides, the GI50 is 4.8 µM (inactive) in the assay on SNB-75; > 100 µM (inactive) with TK-10; > 27.5 µM (inactive) with UACC-257; 6.76 µM (inactive) in the assay with UACC-62; 2.9 µM (inactive) in the assay with UO-31.

`O=C1CC(Cc2n[nH]c3c2CCCC3)CC(=O)N1`: the GI50 with A498 was > 100 µM (inactive); in the assay on A549 it was > 100 µM (inactive); with HCT-15, above 100 µM; with HL-60, > 100 µM (inactive); in the assay with IGROV-1, > 100 µM (inactive); in the assay on M14, > 100 µM (inactive). The GI50 in the assay on MCF7, in the assay on OVCAR-3, with RPMI-8226, in the assay on SF-268, in the assay on SF-539 and in the assay with SK-MEL-28 was > 100 µM (inactive) throughout. The GI50 with SNB-75, with SR, in the assay on TK-10, in the assay on UACC-257 and with UACC-62 was > 100 µM (inactive) each time.

As to `CC(CC(N)C(=O)O)C(=O)O` (stereo not drawn), the GI50 in the assay with A498 was > 100 µM (inactive); in the assay with A549, > 100 µM (inactive); with HCT-15, above 100 µM; in the assay with HL-60 it was > 100 µM (inactive); with Hs-578T it was > 100 µM (inactive); in the assay on IGROV-1, > 100 µM (inactive). Moreover, the GI50 with M14, in the assay with OVCAR-3, with SF-268, in the assay with SK-MEL-28, in the assay on SR and in the assay on TK-10 was > 100 µM (inactive) in each case. The GI50 with UACC-257, in the assay with UACC-62 and in the assay on UO-31 was > 100 µM (inactive) each time.

As to `CN1C(=O)C2(C=CC(O)CC2)c2ccccc21` (stereo not drawn), the GI50 in the assay on A498 is > 100 µM (inactive); in the assay with A549 it was > 100 µM (inactive); in the assay with HCT-15, above 100 µM; in the assay on HL-60 it was > 100 µM (inactive); in the assay with IGROV-1, > 100 µM (inactive); in the assay with M14, > 100 µM (inactive). For the same compound, the GI50 with MCF7, in the assay with OVCAR-3, in the assay on RPMI-8226, in the assay with SF-268, in the assay with SK-MEL-28 and in the assay with SNB-75 was > 100 µM (inactive) in each case. Further, the GI50 in the assay on SR, in the assay on TK-10, with UACC-257, with UACC-62 and in the assay with UO-31 was > 100 µM (inactive) each time.

For `Cc1noc(-c2ccc(C(=O)O)[nH]2)c1Br`, the GI50 in the assay on A498 is > 100 µM (inactive); in the assay with A549, 45.2 µM (inactive); in the assay on HCT-15, above 100 µM; in the assay on Hs-578T, 42.3 µM (inactive); in the assay with IGROV-1, 16.4 µM (inactive); in the assay with M14 it was > 100 µM (inactive). Besides, the GI50 is 50.1 µM (inactive) in the assay on MCF7; 23.4 µM (inactive) in the assay on OVCAR-3; > 100 µM (inactive) in the assay with RPMI-8226; 46.1 µM (inactive) in the assay with SF-268; > 100 µM (inactive) with SK-MEL-28; 26.6 µM (inactive) in the assay on SNB-75. The GI50 was 31.5 µM (inactive) in the assay on TK-10, > 100 µM (inactive) in the assay with UACC-257, 64.6 µM (inactive) in the assay on UACC-62 and 71.6 µM (inactive) with UO-31.

With `O=c1[nH]nc(-c2ccccc2)c(-c2ccccc2)c1-n1nc(-c2ccccc2)c2ccccc2c1=O`, the GI50 is > 100 µM (inactive) with A498; 83.4 µM (inactive) with A549; 78 µM in the assay with HCT-15; > 100 µM (inactive) in the assay with IGROV-1; > 100 µM (inactive) with M14; 51.5 µM (inactive) with OVCAR-3. Moreover, the GI50 was 32 µM (inactive) in the assay on RPMI-8226; > 100 µM (inactive) in the assay with SF-268; > 100 µM (inactive) in the assay with SF-539; > 100 µM (inactive) in the assay with SK-MEL-28; > 100 µM (inactive) with SNB-75; 52.1 µM (inactive) in the assay with SR. The GI50 in the assay with TK-10 was > 100 µM (inactive); with UACC-257, > 100 µM (inactive); in the assay with UACC-62, > 100 µM (inactive); in the assay on UO-31, 71.8 µM (inactive).

Consider `O=C(c1ccccc1)N1OCCC1Nc1ccc(Br)cc1` (stereo not drawn), for which the GI50 in the assay on A549 is 3.64 µM (inactive); in the assay with HCT-15 it was 0.604 µM; in the assay on HL-60, 3.47 µM (inactive); with Hs-578T it was > 10 µM (inactive); in the assay with IGROV-1, > 10 µM (inactive); in the assay on M14 it was 4.99 µM (inactive). Moreover, the GI50 in the assay with MCF7 was 5.97 µM (inactive); in the assay with OVCAR-3, > 10 µM (inactive); in the assay with RPMI-8226 it was 4.71 µM (inactive); in the assay on SF-268 it was 5.21 µM (inactive); with SF-539, 2.08 µM (inactive); in the assay on SK-MEL-28, > 10 µM (inactive). The GI50 is > 10 µM (inactive) in the assay with SNB-75, > 10 µM (inactive) in the assay with TK-10, > 10 µM (inactive) with UACC-257 and 1.87 µM (inactive) in the assay on UO-31.

Regarding `C=CC1(CCC(Br)C(C)(C)Cl)CO1` (stereo not drawn), the GI50 was > 10 µM (inactive) in the assay on A498; > 10 µM (inactive) in the assay on A549; above 10 µM in the assay on HCT-15; > 10 µM (inactive) with IGROV-1; > 10 µM (inactive) with M14; > 10 µM (inactive) in the assay with MCF7. The GI50 with OVCAR-3, in the assay on RPMI-8226, with SF-268, in the assay with SF-539, in the assay on SK-MEL-28 and in the assay on SNB-75 was > 10 µM (inactive) in each case. Moreover, the GI50 with TK-10 and with UO-31 was > 10 µM (inactive) in each case.

With `O=C(N/N=C(/c1nc2ccc([N+](=O)[O-])cc2[nH]c1=O)C(O)c1ccc([N+](=O)[O-])cc1)c1ccncc1` (stereo not drawn), the GI50 in the assay on A498 is > 100 µM (inactive); in the assay on A549, 69 µM (inactive); in the assay with HCT-15, 23.1 µM; with HL-60, 26.4 µM (inactive); with IGROV-1, > 100 µM (inactive); in the assay with M14, 45.9 µM (inactive). Besides, the GI50 in the assay on RPMI-8226 was > 100 µM (inactive); in the assay with SF-268, > 100 µM (inactive); with SF-539, 75.5 µM (inactive); in the assay on SK-MEL-28, > 100 µM (inactive); with SNB-75, > 100 µM (inactive); in the assay on SR it was > 100 µM (inactive). Also, the GI50 in the assay on TK-10, in the assay on UACC-257, with UACC-62 and with UO-31 was > 100 µM (inactive) throughout.

Turning to `Cc1ccc([N+](=O)[O-])cc1S(=O)(=O)Nc1ccc(C2=NN(S(=O)(=O)c3cc([N+](=O)[O-])ccc3C)C(c3ccccc3O)C2)cc1` (stereo not drawn), the GI50 in the assay on A498 is 10.4 µM (inactive); in the assay with A549 it was 82.2 µM (inactive); in the assay on HCT-15, above 100 µM; in the assay with HL-60, > 100 µM (inactive); in the assay with IGROV-1, 98.9 µM (inactive); in the assay on M14, > 100 µM (inactive). Moreover, the GI50 was > 100 µM (inactive) with MCF7; 67.3 µM (inactive) with OVCAR-3; 51.1 µM (inactive) in the assay on RPMI-8226; 26.5 µM (inactive) in the assay with SF-268; > 100 µM (inactive) in the assay on SK-MEL-28; 31.1 µM (inactive) with SNB-75. The GI50 is > 100 µM (inactive) with SR; 52.5 µM (inactive) with TK-10; > 100 µM (inactive) in the assay on UACC-257; 58.5 µM (inactive) in the assay on UACC-62; > 100 µM (inactive) in the assay with UO-31.

`C=C(Br)C(C)(Br)CCC(Br)C(C)(C)Br` (stereo not drawn): the GI50 with A549 is 80.2 µM (inactive); in the assay with HCT-15, 34.8 µM; with HL-60, 23.1 µM (inactive); in the assay with IGROV-1 it was 19.7 µM (inactive); in the assay on M14 it was 23.7 µM (inactive); with RPMI-8226, 21.7 µM (inactive). The GI50 in the assay on SF-268 was 30.2 µM (inactive); in the assay with SF-539, 19.3 µM (inactive); in the assay on SK-MEL-28, 19.1 µM (inactive); in the assay on SNB-75, 28.3 µM (inactive); with SR, 13.4 µM (inactive); with TK-10 it was 46.3 µM (inactive). Also, the GI50 in the assay on UACC-257 is 36.8 µM (inactive); in the assay with UACC-62, 21 µM (inactive); in the assay on UO-31, 60.7 µM (inactive).

Consider `O=C1/C(=C/c2ccccc2)CCCC1CN1CCCCC1` (stereo not drawn), for which the GI50 in the assay with A498 is 16.7 µM (inactive); in the assay on A549 it was 17.5 µM (inactive); in the assay with HCT-15, 2.04 µM; in the assay with Hs-578T, 2.94 µM (inactive); with IGROV-1, 2.97 µM (inactive); in the assay with M14 it was 1.89 µM (inactive). In addition, the GI50 was 0.428 µM (active) in the assay with MCF7; 1.71 µM (inactive) in the assay with OVCAR-3; > 100 µM (inactive) in the assay with RPMI-8226; 1.78 µM (inactive) with SF-268; 3.12 µM (inactive) in the assay on SF-539; 1.97 µM (inactive) in the assay on SK-MEL-28. In addition, the GI50 was 7.91 µM (inactive) in the assay with SNB-75; 2.59 µM (inactive) in the assay on TK-10; 6.07 µM (inactive) in the assay on UACC-257; 6.53 µM (inactive) with UACC-62; 1.88 µM (inactive) with UO-31.
